Values quoted from earlier work as cited in patent US6391332B1, “Therapeutic micronutrient composition for severe trauma, burns and critical illness” (Baxter International, Inc., priority 2000, dated 2002).

Tests used:
[1] = doses exceeding 40 grams a day
critically ill patients = details: glutamine supplementation, clinical trials
burn patients = details: 2-10 grams given during burn resuscitation

SMILES: N=C(N)NCCC[C@H](N)C(=O)O [arginine, L-arginine]
- toxicity [1]: non-toxic

SMILES: NC(=O)CC[C@H](N)C(=O)O [glutamine, L-glutamine]
- infection rate (critically ill patients): decreased infection rate

SMILES: O=C1O[C@H]([C@@H](O)CO)C(O)=C1O [ascorbic acid]
- vascular permeability and fluid requirements (burn patients): significantly decrease
